{
  "source": "patent US12077503B2",
  "about": "“Substituted cyclic amides and their use as herbicides” (FMC CORPORATION, priority 2015, dated 2024)",
  "test_in_all_cases": "Test C preemergence",
  "assay_type_in_all_cases": "in vivo",
  "key": {"[1]": {"system": "barnyardgrass (Echinochloa crus-galli)", "settings": "for Plant response rating, Barnyardgrass: scale 0 to 100, 0 no effect, 100 complete control", "outline": "(§1)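 Herbicidal effect, applied preemergence to sown seeds or postemergence to 1- to 4-leaf plants, was scored visually 13 to 15 d after application, 0 to 100 versus controls.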"}, "soybean (Glycine max)": {"system": "soybean (Glycine max)", "settings": "scale 0 to 100, 0 no effect, 100 complete control", "outline": "as §1"}, "corn (Zea mays)": {"system": "corn (Zea mays)", "settings": "for Plant response rating, Corn: scale 0 to 100, 0 no effect, 100 complete control", "outline": "as §1"}, "[2]": {"system": "velvetleaf (Abutilon theophrasti)", "settings": "for Plant response rating, Velvetleaf: scale 0 to 100, 0 no effect, 100 complete control", "outline": "as §1"}, "[3]": {"system": "ragweed (common ragweed, Ambrosia elatior)", "settings": "for Plant response rating, Ragweed: scale 0 to 100, 0 no effect, 100 complete control", "outline": "as §1"}, "[4]": {"system": "crabgrass, large (large crabgrass, Digitaria sanguinalis)", "settings": "for Plant response rating, Crabgrass, Large: scale 0 to 100, 0 no effect, 100 complete control", "outline": "as §1"}, "[5]": {"system": "blackgrass (Alopecurus myosuroides)", "settings": "for Plant response rating, Blackgrass: scale 0 to 100, 0 no effect, 100 complete control", "outline": "as §1"}, "[6]": {"system": "pigweed (Amaranthus retroflexus)", "settings": "for Plant response rating, Pigweed: scale 0 to 100, 0 no effect, 100 complete control", "outline": "as §1"}, "[7]": {"system": "oilseed rape (Brassica napus)", "settings": "for Plant response rating, Oilseed Rape: scale 0 to 100, 0 no effect, 100 complete control", "outline": "as §1"}, "[8]": {"system": "Galium (catchweed bedstraw, Galium aparine)", "settings": "for Plant response rating, Galium: scale 0 to 100, 0 no effect, 100 complete control", "outline": "as §1"}, "[9]": {"system": "ryegrass, Italian (Italian ryegrass, Lolium multiflorum)", "settings": "for Plant response rating, Ryegrass, Italian: scale 0 to 100, 0 no effect, 100 complete control", "outline": "as §1"}, "[10]": {"system": "lambsquarters (Chenopodium album)", "settings": "for Plant response rating, Lambsquarters: scale 0 to 100, 0 no effect, 100 complete control", "outline": "as §1"}, "[11]": {"system": "nutsedge, yellow (yellow nutsedge, Cyperus esculentus)", "settings": "for Plant response rating, Nutsedge, Yellow: scale 0 to 100, 0 no effect, 100 complete control", "outline": "as §1"}, "[12]": {"system": "foxtail, giant (giant foxtail, Setaria faberii)", "settings": "for Plant response rating, Foxtail, Giant: scale 0 to 100, 0 no effect, 100 complete control", "outline": "as §1"}, "[13]": {"system": "waterhemp (common waterhemp, Amaranthus rudis)", "settings": "for Plant response rating, Waterhemp: scale 0 to 100, 0 no effect, 100 complete control", "outline": "as §1"}, "[14]": {"system": "morningglory (Ipomoea coccinea)", "settings": "for Plant response rating, Morningglory: scale 0 to 100, 0 no effect, 100 complete control", "outline": "as §1"}, "[15]": {"system": "johnsongrass (Sorghum halepense)", "settings": "for Plant response rating, Johnsongrass: scale 0 to 100, 0 no effect, 100 complete control", "outline": "as §1"}, "[16]": {"system": "wheat (winter wheat, Triticum aestivum)", "settings": "for Plant response rating, Wheat: scale 0 to 100, 0 no effect, 100 complete control", "outline": "as §1"}, "[17]": {"settings": "31 g ai/ha, 0 is no effect, 100 is complete control"}},
  "data": [
    {"smiles": "CC(C)Oc1cccc(C2CN(C)C(=O)C2C(=O)Nc2ccccc2S(C)(=O)=O)c1", "note": "(stereo not shown) [Compound 653]", "values": [
      {"measurement": "Plant response rating (scale of 0 to 100), Barnyardgrass", "setting": "[1]; [17]", "result": 20},
      {"measurement": "Plant response rating, Barnyardgrass", "setting": "[1]; 62 g ai/ha", "result": 55},
      {"measurement": "Plant response rating, Barnyardgrass", "setting": "[1]; 125 g ai/ha", "result": 80},
      {"measurement": "Plant response rating, Barnyardgrass", "setting": "[1]; 250 g ai/ha", "result": 90},
      {"measurement": "Plant response rating, Soybean", "setting": "soybean (Glycine max); 125 g ai/ha", "result": 5},
      {"measurement": "Plant response rating, Soybean", "setting": "soybean (Glycine max); 250 g ai/ha", "result": 40},
      {"measurement": "Plant response rating (scale of 0 to 100), Corn", "setting": "corn (Zea mays); [17]", "result": 0},
      {"measurement": "Plant response rating, Corn", "setting": "corn (Zea mays); 62 g ai/ha", "result": 0},
      {"measurement": "Plant response rating, Corn", "setting": "corn (Zea mays); 125 g ai/ha", "result": 0},
      {"measurement": "Plant response rating, Corn", "setting": "corn (Zea mays); 250 g ai/ha", "result": 20},
      {"measurement": "Plant response rating (scale of 0 to 100), Velvetleaf", "setting": "[2]; [17]", "result": 0},
      {"measurement": "Plant response rating, Velvetleaf", "setting": "[2]; 62 g ai/ha", "result": 25},
      {"measurement": "Plant response rating, Velvetleaf", "setting": "[2]; 125 g ai/ha", "result": 35},
      {"measurement": "Plant response rating, Velvetleaf", "setting": "[2]; 250 g ai/ha", "result": 50},
      {"measurement": "Plant response rating (scale of 0 to 100), Ragweed", "setting": "[3]; [17]", "result": 0},
      {"measurement": "Plant response rating, Ragweed", "setting": "[3]; 62 g ai/ha", "result": 5},
      {"measurement": "Plant response rating, Ragweed", "setting": "[3]; 125 g ai/ha", "result": 35},
      {"measurement": "Plant response rating, Ragweed", "setting": "[3]; 250 g ai/ha", "result": 60},
      {"measurement": "Plant response rating (scale of 0 to 100), Crabgrass, Large", "setting": "[4]; [17]", "result": 90},
      {"measurement": "Plant response rating, Crabgrass, Large", "setting": "[4]; 62 g ai/ha", "result": 95},
      {"measurement": "Plant response rating, Crabgrass, Large", "setting": "[4]; 125 g ai/ha", "result": 100},
      {"measurement": "Plant response rating, Crabgrass, Large", "setting": "[4]; 250 g ai/ha", "result": 100},
      {"measurement": "Plant response rating (scale of 0 to 100), Blackgrass", "setting": "[5]; [17]", "result": 0},
      {"measurement": "Plant response rating, Blackgrass", "setting": "[5]; 62 g ai/ha", "result": 15},
      {"measurement": "Plant response rating, Blackgrass", "setting": "[5]; 125 g ai/ha", "result": 60},
      {"measurement": "Plant response rating, Blackgrass", "setting": "[5]; 250 g ai/ha", "result": 90},
      {"measurement": "Plant response rating (scale of 0 to 100), Pigweed", "setting": "[6]; [17]", "result": 30},
      {"measurement": "Plant response rating, Pigweed", "setting": "[6]; 62 g ai/ha", "result": 20},
      {"measurement": "Plant response rating, Pigweed", "setting": "[6]; 125 g ai/ha", "result": 50},
      {"measurement": "Plant response rating, Pigweed", "setting": "[6]; 250 g ai/ha", "result": 85},
      {"measurement": "Plant response rating (scale of 0 to 100), Oilseed Rape", "setting": "[7]; [17]", "result": 0},
      {"measurement": "Plant response rating, Oilseed Rape", "setting": "[7]; 62 g ai/ha", "result": 0},
      {"measurement": "Plant response rating, Oilseed Rape", "setting": "[7]; 125 g ai/ha", "result": 30},
      {"measurement": "Plant response rating, Oilseed Rape", "setting": "[7]; 250 g ai/ha", "result": 85},
      {"measurement": "Plant response rating (scale of 0 to 100), Galium", "setting": "[8]; [17]", "result": 0},
      {"measurement": "Plant response rating, Galium", "setting": "[8]; 62 g ai/ha", "result": 100},
      {"measurement": "Plant response rating, Galium", "setting": "[8]; 125 g ai/ha", "result": 30},
      {"measurement": "Plant response rating, Galium", "setting": "[8]; 250 g ai/ha", "result": 40},
      {"measurement": "Plant response rating (scale of 0 to 100), Ryegrass, Italian", "setting": "[9]; [17]", "result": 0},
      {"measurement": "Plant response rating, Ryegrass, Italian", "setting": "[9]; 62 g ai/ha", "result": 10},
      {"measurement": "Plant response rating, Ryegrass, Italian", "setting": "[9]; 125 g ai/ha", "result": 20},
      {"measurement": "Plant response rating, Ryegrass, Italian", "setting": "[9]; 250 g ai/ha", "result": 25},
      {"measurement": "Plant response rating (scale of 0 to 100), Lambsquarters", "setting": "[10]; [17]", "result": 15},
      {"measurement": "Plant response rating, Lambsquarters", "setting": "[10]; 62 g ai/ha", "result": 35},
      {"measurement": "Plant response rating, Lambsquarters", "setting": "[10]; 125 g ai/ha", "result": 50},
      {"measurement": "Plant response rating, Lambsquarters", "setting": "[10]; 250 g ai/ha", "result": 60},
      {"measurement": "Plant response rating (scale of 0 to 100), Nutsedge, Yellow", "setting": "[11]; [17]", "result": 0},
      {"measurement": "Plant response rating, Nutsedge, Yellow", "setting": "[11]; 62 g ai/ha", "result": 0},
      {"measurement": "Plant response rating, Nutsedge, Yellow", "setting": "[11]; 125 g ai/ha", "result": 0},
      {"measurement": "Plant response rating, Nutsedge, Yellow", "setting": "[11]; 250 g ai/ha", "result": 25},
      {"measurement": "Plant response rating (scale of 0 to 100), Foxtail, Giant", "setting": "[12]; [17]", "result": 85},
      {"measurement": "Plant response rating, Foxtail, Giant", "setting": "[12]; 62 g ai/ha", "result": 95},
      {"measurement": "Plant response rating, Foxtail, Giant", "setting": "[12]; 125 g ai/ha", "result": 95},
      {"measurement": "Plant response rating, Foxtail, Giant", "setting": "[12]; 250 g ai/ha", "result": 100},
      {"measurement": "Plant response rating (scale of 0 to 100), Waterhemp", "setting": "[13]; [17]", "result": 35},
      {"measurement": "Plant response rating, Waterhemp", "setting": "[13]; 62 g ai/ha", "result": 30},
      {"measurement": "Plant response rating, Waterhemp", "setting": "[13]; 125 g ai/ha", "result": 50},
      {"measurement": "Plant response rating, Waterhemp", "setting": "[13]; 250 g ai/ha", "result": 80},
      {"measurement": "Plant response rating (scale of 0 to 100), Morningglory", "setting": "[14]; [17]", "result": 0},
      {"measurement": "Plant response rating, Morningglory", "setting": "[14]; 62 g ai/ha", "result": 0},
      {"measurement": "Plant response rating, Morningglory", "setting": "[14]; 125 g ai/ha", "result": 0},
      {"measurement": "Plant response rating, Morningglory", "setting": "[14]; 250 g ai/ha", "result": 0},
      {"measurement": "Plant response rating (scale of 0 to 100), Johnsongrass", "setting": "[15]; [17]", "result": 0},
      {"measurement": "Plant response rating, Johnsongrass", "setting": "[15]; 62 g ai/ha", "result": 0},
      {"measurement": "Plant response rating, Johnsongrass", "setting": "[15]; 125 g ai/ha", "result": 40},
      {"measurement": "Plant response rating, Johnsongrass", "setting": "[15]; 250 g ai/ha", "result": 55},
      {"measurement": "Plant response rating (scale of 0 to 100), Wheat", "setting": "[16]; [17]", "result": 0},
      {"measurement": "Plant response rating, Wheat", "setting": "[16]; 62 g ai/ha", "result": 0},
      {"measurement": "Plant response rating, Wheat", "setting": "[16]; 125 g ai/ha", "result": 0},
      {"measurement": "Plant response rating, Wheat", "setting": "[16]; 250 g ai/ha", "result": 40}
    ]}
  ]
}
